Assays:
[1] = system: MDA-MB-231; test: Cytotoxicity of EP probes via CTG assay; format: cell-based, human; settings: 72 hr, read-out: MDA-MB231 EC50
[2] = system: SUM-149; test: Cytotoxicity of EP probes via CTG assay; format: cell-based, human; settings: 72 hr, read-out: SUM149 EC50
[3] = system: T47D; test: Cytotoxicity of EP probes via CTG assay; format: cell-based; settings: 72 hr
[4] = system: HMEC; test: Cytotoxicity of EP probes via CTG assay, normal cells; format: cell-based; settings: 72 hr
[5] = system: MDA-MB-231, SUM-149, T47D; test: Cytotoxicity of EP analogues via CTG assay, comparison across cell lines; settings: 72 hr
Procedure: To better understand the structure-activity-relationship of EP, its core was modified at the C3 position of the steroid backbone. […] Both normal cell lines HMEC and BJ cells were also evaluated to determine therapeutic index.
(§1) Either 1×10^3-4.8×10^3 or 4×10^2-1.2×10^3 cells were seeded to each well of 96- or 384-well white polystyrene flat-bottomed plates (3610 or 8804BC, Corning) in 100 μL or 30 μL media per well, respectively. The concentrations used were experimentally determined to ensure logarithmic growth during the duration of the experiment and prevent adverse effects on cell growth by DMSO exposure. The plates were incubated at 37° C. in 5% CO2 for 24 h before treatment. Stock solutions of test compounds (10 mM in DMSO) in nine 3-fold serial dilutions were dispensed via pintool (Biomek). The final concentration of DMSO was 0.3% (v/v) in each well. The plates were incubated for 72 h at 37° C. in 5% CO2 and then quenched with CellTiter-Glo® reagent (50 μL/well in 96-well plate, 30 μL/well in 384-well plate) at RT. The positive controls included staurosporine (10 μM), gambogic acid (10 μM), and a toxic quinoline generated in-house. Plates were then incubated at RT for 20 min and centrifuged at 1000 rpm for 1 min. The cytotoxicity assay was performed by using the CellTiterGlo Luminescent Cell Viability Assay kit (G7570, Promega, Madison, WI) according to the manufacturer's instructions. Luminescence was recorded in an Envision plate reader (Perkin Elmer).

[6] = Propidium iodide assay; format: cell-based
Procedure: Efforts to address the specific target in breast cancer cellular models are disclosed. Thus, in the present disclosure, the EP-chemical probes were generated to study subcellular co-localization in order to recover its potential mechanism in breast cancer cell models. An efficient synthetic approach to EP and its analogues from ergosterol was developed. The resultant EP compounds were evaluated for cytotoxicity/apoptosis via CellTiterGlo assay, and propidium iodide assay.

[7] = system: BJ cells; test: Cell viability assay in normal fibroblasts; settings: at the concentrations tested
Procedure: The compounds' activity was also evaluated in human and murine leukemia (KOPN8, BCR-ABL, UoCB-1, SUP-B15, NALM06) cell lines. As a control, normal human skin fibroblasts (BJ) cells and non-cancerous mammary epithelial cells (MCF10A) were used.
Different concentrations of GLE-extracted bioactive chemical components were tested for 72-h treatment periods.
as §1, with “The cytotoxicity assay was performed by using the CellTiterGlo Luminescent Cell Viability Assay kit (G7570, Promega, Madison, WI) according to the manufacturer's instructions.” left out
For the CTG assay, 3 or 4 replicate assays were conducted for each experimental condition, and a minimum of 3 independent experiments were conducted for cellular assays. The mean luminescence of each experimental treatment group was normalized as a percentage of the mean intensity of untreated controls. EC50 values (μM) were calculated by Pipeline Pilot Software (Accelrys, Enterprise Platform, CA, USA). EC50 values (μM) from the viability assay were calculated from dose response curve-fitting via non-linear regression by using GraphPad Prism (Version 7.0 San Diego, CA). […]

[8] = system: MDA-MB-231 cells; test: ApoTox-Glo Triplex assay (caspase 3/7); format: cell-based, human; settings: MDA-MB-231, 24 h
Procedure: (§2) Cells commonly fail to bypass the G1 phase of the cycle due to mutations or DNA damage, which can result in apoptosis. […] In addition, caspase 3/7 activity assays were performed as an alternate method of apoptosis detection.
(§3) Cells (9.5×10^4/well in 75 μL of fresh medium) were dispensed in 96-well black flat bottom (8807BC, Corning) plates. The cells were incubated for 12 h at 37° C. and then treated with compounds (25 μL) for 24 h. DMSO was used as a negative control, and staurosporine was used as the positive control. The experiment was stopped by adding the Viability/Cytotoxicity Reagent and briefly mixed by orbital shaking (300-500 rpm for ˜30 sec). Plates were incubated for 30 min at 37° C., and fluorescence was measured in an Envision plate reader at the following two wavelength sets: 400Ex/505Em (Viability) 485Ex/520Em (Cytotoxicity). Then, the Caspase-Glo® 3/7 Reagent was added; plates were mixed briefly by orbital shaking (300-500 rpm for ˜30 sec), followed by an additional 30 min incubation at RT. Then luminescence, which correlates with caspase 3/7 activation, was recorded with a plate reader to determine apoptosis induction.

[9] = system: SUM-149 cells; test: ApoTox-Glo Triplex assay (caspase 3/7); format: cell-based, human; settings: SUM-149, 24 h
Procedure: as §2, §3

[10] = system: MDA-MB-231 breast cancer cells; test: De novo in-cell protein synthesis (click assay); format: cell-based, human; settings: 2 h treatment; EP 20 μM
Procedure: First, 2.5×10^4 cells/well were seeded in 8-well μ-slides (Ibidi®, #80826) and incubated at 37° C. for 12 h. The cells were treated with vehicle, compounds Ganoderic acid A or EP, or cycloheximide (positive control) for 2 h to determine protein synthesis as nascent proteins generated using Biovision's EZClick™ Global Protein Synthesis Assay Kit, (#K715-100, Milpitas, CA). The assay includes a robust chemical method based on an alkyne containing o-propargyl-puromycin (OP-puro) probe, which stops translation by forming covalent conjugates with nascent polypeptide chains. Truncated polypeptides are rapidly turned over by the proteasome and can be detected based on the subsequent click reaction with a fluorescent azide. The reaction was conducted according to the manufacturer's protocol. Cells were imaged at 20× with a Nikon C2 scanning confocal microscope, and the whole image montage was quantified by using Gen5 Software and Lionheart™ FX Automated Microscope (BioTek, Winooski, VT).

[11] = system: MCF-7 breast cancer cells; test: Reactive oxygen species (ROS) measurement, CellROX; format: cell-based, human; settings: not statistically significant for the GLE compounds
Procedure: Live-cell CellROX® assays for oxidative stress detection were conducted to evaluate whether GA-01, ergosterol, 5-6-dihydroergosterol and EP trigger intrinsic apoptosis pathways by inducing ROS. […] Menadione or t-Butyl hydrogen peroxide (TBHP) were positive controls (FIGS. 7 and S5) and co-treated with N-acetyl cysteine (NAC) to confirm that the signal was due to ROS formation induced by the compound. […] Furthermore, the possibility of the endoperoxide motif to react with NAC, was assessed EP was incubated with NAC in DMSO for 24 h at 37° C. […] Thus, the ability of EP to induce ROS could potentially be via a different mechanism from that of TBHP in MCF-7 cells.
The mRuby-Mito-7 plasmid was obtained from Addgene (#55874 from Michael Davidson). A stable clone of MCF-7 was generated by using Fugene 6 (Roche) to transfect cells (2×10^5) with plasmid (2.0 μg) under neomycin selection. A stable cell line was selected by using G418 (300 μg/mL) for 2 weeks, sorted by flow cytometry, and maintained under G418 thereafter. Transfected MCF-7 cells were plated at a density of 2×10^4 cells/well in black 96-well clear bottom tissue culture plates and incubated overnight at 37° C. […] Fluorescence intensity was measured in a Clariostar® plate reader (BMG LABTECH, Cary, NC) at 535 nm.

[12] = system: MDA-MB-231 cells; test: Reactive oxygen species (ROS) measurement, CellROX; format: cell-based, human; settings: NAC 500 μM
[13] = system: SUM-149 cells; test: Reactive oxygen species (ROS) measurement, CellROX; format: cell-based, human; settings: NAC 500 μM

Structure (SMILES) | EC50 [1] | EC50 [2] | EC50 [3] | EC50 [4] | cytotoxicity compared with parental compound 3 (in words) [5] | ability to induce apoptosis [6] | other results
CC(C)C(C)C=CC(C)C1CCC2C1(C)CCC1C23C=CC2(CC(OC(=O)CCCCC4SCC5NC(=O)NC54)CCC12C)OO3 (stereo not shown) [3k] | 10 µM | 4 µM | > 10 µM | > 14 µM | comparable cytotoxicity to the parental compound 3 | validated via propidium iodide assay | –
Cc1cc(C)n2c1C=C1C=CC(CCC(=O)OC3CCC4(C)C5CCC6(C)C(C(C)C=CC(C)C(C)C)CCC6C56C=CC4(C3)OO6)=[N+]1[B-]2(F)F (stereo not shown) [3m] | 18 µM | 2 µM | 18 µM | > 15 µM | comparable cytotoxicity to the parental compound 3 | validated via propidium iodide assay | –
C[C@H](CC(=O)C[C@@H](C)[C@H]1C[C@H](O)[C@@]2(C)C3=C(C(=O)C[C@]12C)[C@@]1(C)CCC(=O)C(C)(C)[C@@H]1C[C@@H]3O)C(=O)O [GA-01, ganoderic acid A] | – | – | – | – | – | – | cytotoxic effects in normal BJ cells [7]: did not induce cytotoxic effects; caspase 3/7 activity [8]: increase caspase 3/7 activity; caspase 3/7 activity [9]: increase caspase 3/7 activity; de novo protein synthesis inhibition [10]: do not inhibit de novo protein synthesis
CC(C)(C)OO [TBHP, t-Butyl hydroperoxide] | – | – | – | – | – | – | ROS formation reduction when co-treated with NAC [11]: ~50%
CC1=CC(=O)c2ccccc2C1=O [menadione, Menadione, reference compound] | – | – | – | – | – | – | reduction in ROS formation in the presence of NAC [12]: about 20%; reduction in ROS formation in the presence of NAC [13]: about 20%
